One test has as its system IMR90-1 human iPSCs. In words: Flow cytometry of IMR90-1 cardiac spheroids. It counts as cell-based. The following applies: day 12.5. On the procedure:
For flow cytometry, the eiPSC spheroids were collected on day 0 and the cardiac spheroids were collected on days 1.5, 2.5, 12.5, 15. The spheroids were dissociated to single cells by 0.25% trypsin for 5 min at 37° C. and then fixed with 75% ethanol at 4° C. overnight. The cells were permeabilized with 0.05% Triton X-100 for 3 min and then rinsed with 1×PBS twice. The cell numbers were adjusted to 1×10^6 cells/tube in 700 μL of saline for each marker. These cells were incubated with primary antibodies including OCT-4 (1:500 dilution, Cell Signaling Technologies), NANOG (1:500 dilution, Cell Signaling Technologies), SSEA-4 (1:500 dilution, Cell Signaling Technologies), BRACHYURY (1:500; Santa Cruz Biotechnology), NKX2.5 (1:500; Santa Cruz Biotechnology), cTnT (1:500 dilution, Cell Signaling Technologies), cTnI (1:500 dilution, Cell Signaling Technologies), α-ACTININ (1:500 dilution; Santa Cruz Biotechnology), MUSASHI-1 (1:500; R&D Systems), and TUJ-1 (1:500; R&D Systems) at 4° C. overnight. Subsequently, the samples were rinsed with 1×PBS thrice before incubation with corresponding secondary antibodies: goat anti-mouse IgG FITC and goat anti-rabbit IgG PE, respectively (1:1000; Invitrogen) for 1 h at RT. The samples were then rinsed with 1×PBS thrice before flow cytometry. The negative controls were the cells incubated with respective primary antibodies as aforementioned (no incubation with a secondary antibody).
In general terms: Flow cytometry measures light scatter and fluorescence of single cells or particles in a stream.

Test [1] deals with human eiPSCs (DF19-9-11T.H). Description: 3D suspension culture of eiPSC spheroids with Rock inhibitor (morphology, size, cells per spheroid). The class given is cell-based. The following applies: day −3. On the procedure:
The timeline for the 4-day (from day −4 to 0) 3D culture and the subsequent 3D cardiac differentiation of iPSCs is illustrated in FIG. 1B. First, 3D eiPSC spheroids were obtained for 3D cardiac differentiation, for which the eiPSC colonies from 2D culture were detached and mechanically cut with a cell strainer (100 μm mesh size) into small iPSC clumps for suspension culture in the mTeSR medium for 4 days. Methylcellulose was added into the medium to enhance the medium viscosity and reduce fusion of the eiPSC clumps/spheroids during the suspension culture. During the first two days of 3D culture, the medium was supplemented with 1 μM RI (low RI) or 10 μM RI (high RI that has been commonly used for improving the survival/yield of human PSCs including iPSCs during culture), and no RI was used during the last two days of culture. […]
To obtain 3D iPSC spheroids, the iPSC colonies under 2D culture at ˜80% confluence were treated with Versene for 2 min, rinsed with PBS, and further detached from the substrate by gentle pipetting. […] The dissociated cells were then resuspended in 1.4 ml of the aforementioned iPSC maintenance medium and the cell number was counted using a hemocytometer. […]

Regarding `C[C@@H](N)[C@H]1CC[C@H](C(=O)Nc2ccncc2)CC1.Cl.Cl` (relative stereo) [RI, (+)-(R)-trans-4-(1-aminoethyl)-N-(4-pyridyl) cyclo-hexanecarboxamide dihydrochloride], the “cells positive for MUSASHI” value is listed as “negligible” with IMR90-1 human iPSCs (1 μM RI) and around 20% in the test with IMR90-1 human iPSCs (10 μM RI). Further, the “cells positive for cTnT” value in the test with IMR90-1 human iPSCs (1 μM RI) is 91%; in the test with IMR90-1 human iPSCs (10 μM RI), 32%. The “morphology of eiPSC spheroids” value is on record as “remain solid-like” in test [1] (1 μM RI) and “evident core-shell morphology with a cavity-like core” in test [1] (10 μM RI).

(Values after US20230035127A1, “CULTURE AND DIFFERENTIATION OF PLURIPOTENT STEM CELLS” (University of Maryland, College Park, priority 2021, published 2023).)
